Assay results as given in BindingDB's records for doi:10.1016/s0960-894x(00)00654-5 (Roche Discover Welwyn, 2001).
pIC50: −log10 of the molar value. *1 amine or outer side, *2 acyl side, *3 side chain or, on linkers, in order; H or OH if unused. Where a SMILES comes first, the peptide text is derived from it. [ ]: non-standard residue; d: D form. The star is where a group is joined. Phe(2-Me) = Cc1ccccc1C[C@H](N)C(=O)O; NleCONH2 = CCCC[C@H](N*)C(=O)C(N)=O; Suc = O=C(CCC(=O)[*:2])[*:1]; Tle = CC(C)(C)[C@H](N)C(=O)O

Experiment: Compound was tested for inhibition of Serine protease chymotrypsin

pIC50: 6.52
Structure (SMILES): CCCC[C@H](NC(=O)[C@H](CC(C)C)NC(=O)[C@@H](NC(=O)[C@H](Cc1ccccc1C)NC(=O)[C@H](CCC(=O)O)NC(=O)[C@H](CC(=O)O)NC(=O)CCC(=O)O)C(C)(C)C)C(=O)C(N)=O [(S)-4-((S)-1-{(S)-1-[(S)-1-((R)-1-Aminooxalyl-pentylcarbamoyl)-3-methyl-butylcarbamoyl]-2,2-dimethyl-propylcarbamoyl}-2-o-tolyl-ethylcarbamoyl)-4-[(S)-3-carboxy-2-(3-carboxy-propionylamino)-propionylamino]-butyric acid] (Suc-DE[Phe(2-Me)][Tle]L-NleCONH2)
